Source: US20250282799A1, “SUBSTITUTED PYRIDO[4,3-d]PYRIMIDINES AS KRAS MODULATORS” (Alterome Therapeutics, Inc., priority 2023, published 2025)

Tests used:
[1] = system: KRAS G12V dependent lung adenocarcinoma cell line, NCI-H441; assay: Cellular pERK (Thr202/Tyr204) FRET/HTRF assay; type: cell-based; conditions: Homo sapiens, NCI-H441, pERK HTRF, NCI-H441 cells (KRAS G12V)
How it was run: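 IC50 reflects inhibition of ERK1/2 Thr202/Tyr204 phosphorylation, quantified by HTRF after a 1 hr treatment of KRAS G12V-driven NCI-H441 cells. DMSO served as negative control.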

[2] = Pharmacokinetic evaluation, single dosing (oral and intravenous) in rats; type: in vivo, male Sprague-Dawley rats; parameters: unit not given here; conditions: rat, plasma
Protocol: Pharmacokinetic profile for test compound was measured by single dosing in male Sprague-Dawley rats. Animal weights were typically over 200 grams, and animals were allowed to acclimate to their new environment for at least 3 days prior to the initiation of any studies. One set of animals was dosed intravenous with test compound, 2 mg/kg in 20% PEG400, 10% HS-15 Solutol, 70% 50 mM citrate buffer (pH 4.0). Intravenous dosing solution concentration was 1.0 mg/mL. Time of blood sampling was 5 minutes, 15 minutes, 30 minutes, 1 hour, 2 hours, 4 hours, 8 hours, and 24 hours following intravenous dosing. Another set of animals was dosed orally with test compound, 30 mg/kg in 20% PEG400, 10% HS-15 Solutol, 70% 50 mM citrate buffer (pH 4.0). Oral dosing solution concentration was 3.0 mg/mL. Time of blood sampling was 15 minutes, 30 minutes, 1 hour, 2 hours, 4 hours, 8 hours, and 24 hours following oral dosing. Blood samples (˜0.2 mL/sample) were collected via jugular vein and placed in tubes containing Heparin-Na. The blood samples in tubes were mixed and then placed on wet ice prior to centrifugation for plasma. The blood samples were centrifuged at 4000 g for 5 minutes at 4° C. to obtain plasma. The obtained plasma was separated and stored frozen at approximately −80° C.
All the plasma samples were analyzed using a Shimadzu (DGU-405) HPLC with an API 6500+MS/MS system following the manufacturer's instructions. All the analytes were detected with positive-mode electrospray ionization (ES+). A standard curve for each test compound was generated and used to measure test compound concentrations in the rat plasma samples. Based on the time course sampling, an area under the curve (AUC) was calculated for the oral group and intravenous group. The percentage of rat bioavailability is calculated based on the equation shown below.
where F is bioavailability, AUCPO is area under curve of oral dosing, AUCIV is area under curve of intravenous dosing, DoseIV is the intravenous dose and DosePO is the oral dose. The oral dosing for the experiments presented in Table 5 was performed at 10 mg/kg unless noted otherwise.

Structure (SMILES)	IC50 [1]	IV (dose 2 mg/kg) (AUC/D) (h*mg/mL) [2]	PO (dose 10 mg/kg) (AUC/D) (h*mg/mL) ([2]; oral)	PO (AUC/D) (h*mg/mL), dose 30 mg/kg ([2]; oral, dose 30 mg/kg)
[2H]C([2H])(Oc1nc(N2CCCC[C@H]3[C@H](F)[C@H]32)c2cnc(-c3cc(N)cc4cc(F)c(F)c(C#C)c34)c(F)c2n1)[C@@]12CCCN1C[C@H](F)C2 [Example 16, 5-Ethynyl-6,7-difluoro-4-(8-fluoro-4-((1S,7R,8S)-8-fluoro-2-azabicyclo[5.1.0]octan-2-yl)-2-(((2R,7aS)-2-fluorotetrahydro-1H-pyrrolizin-7a(5H)-yl)methoxy-d2)pyrido[4,3-d]pyrimidin-7-yl)naphthalen-2-amine]	< 0.05 µM	718	75	–
[2H]C([2H])(Oc1nc(N2CCOC[C@H]3[C@H](F)[C@H]32)c2cnc(-c3cc(N)cc4cc(F)c(F)c(C#C)c34)c(F)c2n1)[C@@]12CCCN1C[C@H](F)C2 [Example 28, 5-Ethynyl-6,7-difluoro-4-(8-fluoro-4-((1S,7S,8S)-8-fluoro-5-oxa-2-azabicyclo[5.1.0]octan-2-yl)-2-(((2R,7aS)-2-fluorotetrahydro-1H-pyrrolizin-7a(5H)-yl)methoxy-d2)pyrido[4,3-d]pyrimidin-7-yl)naphthalen-2-amine]	< 0.05 µM	993	141	–
[2H]C([2H])(Oc1nc(N2CCCC[C@H]3[C@H](F)[C@H]32)c2cnc(-c3cc(N)cc4ccc(F)c(C#C)c34)c(F)c2n1)[C@@]12CCCN1C[C@H](F)C2 [Example 82, 5-Ethynyl-6-fluoro-4-(8-fluoro-4-((1S,7R,8S)-8-fluoro-2-azabicyclo[5.1.0]octan-2-yl)-2-(((2R,7aS)-2-fluorotetrahydro-1H-pyrrolizin-7a(5H)-yl)methoxy-d2)pyrido[4,3-d]pyrimidin-7-yl)naphthalen-2-amine]	< 0.05 µM	490	115	–
[2H]C([2H])(Oc1nc(N2CCOC[C@H]3[C@H](F)[C@H]32)c2cnc(-c3cc(N)cc4ccc(F)c(C#C)c34)c(F)c2n1)[C@@]12CCCN1C[C@H](F)C2 [Example 87, 5-Ethynyl-6-fluoro-4-(8-fluoro-4-((1S,7S,8S)-8-fluoro-5-oxa-2-azabicyclo[5.1.0]octan-2-yl)-2-(((2R,7aS)-2-fluorotetrahydro-1H-pyrrolizin-7a(5H)-yl)methoxy-d2)pyrido[4,3-d]pyrimidin-7-yl)naphthalen-2-amine]	< 0.05 µM	494	–	122
